This note sets out measurements from PMC3958746 (FEBS Open Bio, 2014).

The target of the test is core histone octamer (Homo sapiens, UniProt P0C0S8+P62805+P62807+P68431). Put plainly: intrinsic histone fluorescence quenching titration. It counts as binding.

In general, Kd refers to the free concentration of one partner at which half of the binding sites on the other are occupied at equilibrium, for simple one-to-one binding. A higher Kd goes with weaker binding.

Turning to `CC[n+]1c(-c2ccccc2)c2cc(N)ccc2c2ccc(N)cc21` [EB, ethidium bromide], the Kd stood at 7.7 ± 0.1 µM.
